The values below come from patent US7825128B2, “Sulfoximine-substituted pyrimidines, processes for production thereof and use thereof as drugs” (Bayer Schering Pharma AG, priority 2005, dated 2010).

SMILES strings stand for the structures.

Assay type in all cases: biochemical
In experiment [1] the target is T1, Aurora-C (Homo sapiens, UniProt Q9UQB9).
T1 construct: made in house; host or cells: transiently transfected HEK293 cells
T1 sequence (Q9UQB9 1-309): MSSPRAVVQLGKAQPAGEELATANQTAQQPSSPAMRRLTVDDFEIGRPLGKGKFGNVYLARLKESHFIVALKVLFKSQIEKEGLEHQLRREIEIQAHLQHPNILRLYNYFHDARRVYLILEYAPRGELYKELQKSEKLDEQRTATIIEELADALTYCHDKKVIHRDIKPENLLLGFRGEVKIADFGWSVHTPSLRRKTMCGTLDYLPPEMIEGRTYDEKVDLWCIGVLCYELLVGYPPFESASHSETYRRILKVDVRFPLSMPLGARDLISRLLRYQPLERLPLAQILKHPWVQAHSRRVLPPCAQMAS
The experiment in a line: Aurora-C kinase assay. To be noted: 3 μM ATP. As for the experimental part:
Recombinant Aurora-C Protein was expressed in transiently transfected HEK293 cells and then purified. As the kinase substrate, the biotinylated peptide with the amino acid sequence biotin-FMRLRRLSTKYRT, which was purchased from the company Jerini AG in Berlin, was used.
Aurora-C [5 nM in the test mixture, test volume 5 μl] was incubated for 90 mins at 22° C. in the presence of different concentrations of test substances (0 μM, and 10 data points within the range 0.001-20 μM in duplicate values) in assay buffer [25 mM HEPES pH 7.4, 0.5 mM MnCl2, 0.1 mM Na orthovanadate, 2.0 mM dithiothreitol, 0.05% bovine serum albumin (BSA), 0.01% Triton X-100, 3 μM adenosine trisphosphate (ATP), 0.67 nCi/μl gama-P33-ATP, 2.0 μM substrate peptide biotin-FMRLRRLSTKYRT, 1.0% dimethylsulfoxide]. The reaction was stopped by addition of 12.5 μl of an EDTA/detection solution [16 mM EDTA, 40 mM ATP, 0.08% Triton X-100, 4 mg/ml PVT-streptavidin-SPA beads (Amersham Co.)]. After 10 minutes' incubation, the SPA beads were pelleted by 10-minute centrifugation at 1000×G. The measurement was performed in a Topcount scintillation meter from the Perkin Elmer company. […] The IC50 values were determined by a 4-parameter fit using in-house software. […]

In experiment [2] the target is T2, CDK2/CycE (Homo sapiens, UniProt P24941).
T2 construct: GST; purchased ProQinase GmbH, Freiburg; host or cells: Baculovirus-infected Sf9 insect cells
As to the kind of experiment: CDK2/CycE kinase assay. To be noted: 0.5 μM ATP, Histone IIIS substrate. The procedure: Recombinant CDK2- and CycE-GST fusion proteins, purified from Baculovirus-infected insect cells (Sf9), were purchased from ProQinase GmbH, Freiburg. Histone IIIS, which was used as the kinase substrate, was purchased from the Sigma Co.
CDK2/CycE (50 ng/data point) was incubated for 10 mins at 22° C. in the presence of different concentrations of test substances (0 μM, and within the range 0.01-100 μM) in assay buffer [50 mM tris/HCl pH8.0, 10 mM MgCl2, 0.1 mM Na orthovanadate, 1.0 mM dithiothreitol, 0.5 μM ATP, 10 μg/data point Histone IIIS, 0.2 μCi/data point ^33P-gamma ATP, 0.05% NP40, 1.25% dimethylsulfoxide]. The reaction was stopped by addition of EDTA solution (250 mM, pH8.0, 15 μl/data point).
15 μl of each reaction mixture was applied onto P30 filter strips (Wallac Co.), and non-incorporated ^33P-ATP was removed by washing the filter strips three times, for 10 mins each time, in 0.5% phosphoric acid. After drying of the filter strips for 1 hour at 70° C., the filter strips were covered with scintillator strips (MeltiLex™ A, Wallac Co.) and baked for 1 hour at 90° C. The quantity of incorporated ^33P (substrate phosphorylation) was determined by scintillation measurement in a gamma radiation meter (Wallac).

Experiment [3] addresses T3, Tie-2 (Homo sapiens, UniProt Q02763).
T3 construct: consisting of GST and the intracellular domain of Tie-2; made in house; host or cells: insect cells (Hi-5)
As to the kind of experiment: Tie-2 kinase assay without prior activation of the kinase. Conditions: 10 μM ATP. The source says: For the kinase assay, a recombinant fusion protein expressed in insect cells (Hi-5) and purified by glutathione-sepharose affinity chromatography, consisting of GST and the intracellular domain of Tie-2, was used. Alternatively, commercially available GST-Tie2 fusion protein (Upstate Biotechnology, Dundee, Scotland) can be used. As the substrate for the kinase reaction, the biotinylated peptide biotin-Ahx-EPKDDAYPLYSDFG (C-terminus in amide form), which can be acquired e.g. from the company Biosyntan GmbH (Berlin-Buch, Germany) was used. […]
The resulting mixture was incubated for 1 hr at 22° C. in order to allow the binding of the biotinylated phosphorylated peptide to the streptavidin-XLent and the PT66-Eu-chelate. After this, the quantity of the phosphorylated substrate peptide was determined by measurement of the resonance energy transfer from the PT66-Eu chelate to the streptavidin-XLent. For this purpose, the fluorescence emission at 620 nm and 665 nm after excitation at 350 nm was measured in a HTRF meter, e.g. Rubystar (BMG Labtechnologies, Offenburg, Germany) or Viewlux (Perkin-Elmer). The ratio of the emissions at 665 nm and at […] was used as a measure of the quantity of the phosphorylated substrate peptide. […]

T3 sequence (Q02763 770-1124 limits assumed, species assumed): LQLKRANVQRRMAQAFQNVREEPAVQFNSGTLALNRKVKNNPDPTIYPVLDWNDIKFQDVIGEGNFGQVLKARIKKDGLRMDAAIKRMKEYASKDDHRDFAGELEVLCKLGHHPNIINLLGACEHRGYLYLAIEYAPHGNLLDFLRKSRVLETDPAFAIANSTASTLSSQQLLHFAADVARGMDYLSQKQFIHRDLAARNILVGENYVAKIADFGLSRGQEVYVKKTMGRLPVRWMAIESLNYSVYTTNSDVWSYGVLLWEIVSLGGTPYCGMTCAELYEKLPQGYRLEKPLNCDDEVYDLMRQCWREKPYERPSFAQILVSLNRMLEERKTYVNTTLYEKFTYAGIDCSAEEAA

As for `CCOC(=O)N=S(C)(=O)c1ccc(Nc2ncc(-c3cccs3)c(N[C@H](C)CO)n2)cc1` (mixture of isomers) [Example 1.1, (RS)—N-(ethoxycarbonyl)-S-(4-{[4-{[(R)-2-hydroxy-1-methylethyl]amino}-5-(2-thienyl)pyrimidine-2-yl]amino}phenyl)-S-methylsulfoximide], the IC50 (usually the concentration that inhibits the measured activity by half) in experiment [1] is 2 µM.

As for `CCS(=N)(=O)c1ccc(Nc2ncc(-c3ccsc3)c(N[C@H](CO)CC(C)C)n2)cc1` (mixture of isomers) [Example 5.3, (RS)—S-ethyl-S-(4-{[4-{[(S)-1-(hydroxymethyl)-3-methylbutyl]amino}-5-(3-thienyl)pyrimidine-2-yl]amino}phenyl)sulfoximide], it took 3 µM to reach half-maximal inhibition in experiment [2] (IC50).

`CC[C@H](CO)Nc1nc(Nc2ccc(S(C)(=N)=O)c(Br)c2)ncc1-c1cccs1` (mixture of isomers) [Example 5.5, (RS)—S-{2-bromo-4-[(4-{[(R)-1-(hydroxymethyl)propyl]amino}-5-(2-thienyl)-pyrimidine-2-yl)amino]phenyl}-S-methylsulfoximide] registered an IC50 in experiment [3] of 3 µM.
